Assay results from ChEMBL document CHEMBL1201862, “PubChem BioAssay data set” (2004).
Activity calls are given as the source filed them.

Key:
Mucolipin-3 = Mucolipin-3 (Homo sapiens, UniProt Q8TDD5); test: Fluorescence counterscreen assay for […] agonists: dose response cell-based high-throughput screening assay to identify agonists of the transient receptor potential channel ML3 (TRPML3). [Related pubchem assays: 1424, 1448 ]; type: functional
Ion channel NompC = Ion channel NompC (Danio rerio, UniProt Q7T1G6); test: Dose response cell-based high-throughput screening assay for agonists of the transient receptor potential channel N1 (TRPN1). [Related pubchem assays (depositor defined):AID1424, AID1448]; type: functional
Hexokinase HKDC1 = molecular target: T1, Hexokinase HKDC1 (Homo sapiens, UniProt Q2TB90); test: activation of HKDC1 glucose phosphorylation – biochemical, W721R variant, dose response (AID 504730); type: functional
T1 sequence (Q2TB90 whole entry): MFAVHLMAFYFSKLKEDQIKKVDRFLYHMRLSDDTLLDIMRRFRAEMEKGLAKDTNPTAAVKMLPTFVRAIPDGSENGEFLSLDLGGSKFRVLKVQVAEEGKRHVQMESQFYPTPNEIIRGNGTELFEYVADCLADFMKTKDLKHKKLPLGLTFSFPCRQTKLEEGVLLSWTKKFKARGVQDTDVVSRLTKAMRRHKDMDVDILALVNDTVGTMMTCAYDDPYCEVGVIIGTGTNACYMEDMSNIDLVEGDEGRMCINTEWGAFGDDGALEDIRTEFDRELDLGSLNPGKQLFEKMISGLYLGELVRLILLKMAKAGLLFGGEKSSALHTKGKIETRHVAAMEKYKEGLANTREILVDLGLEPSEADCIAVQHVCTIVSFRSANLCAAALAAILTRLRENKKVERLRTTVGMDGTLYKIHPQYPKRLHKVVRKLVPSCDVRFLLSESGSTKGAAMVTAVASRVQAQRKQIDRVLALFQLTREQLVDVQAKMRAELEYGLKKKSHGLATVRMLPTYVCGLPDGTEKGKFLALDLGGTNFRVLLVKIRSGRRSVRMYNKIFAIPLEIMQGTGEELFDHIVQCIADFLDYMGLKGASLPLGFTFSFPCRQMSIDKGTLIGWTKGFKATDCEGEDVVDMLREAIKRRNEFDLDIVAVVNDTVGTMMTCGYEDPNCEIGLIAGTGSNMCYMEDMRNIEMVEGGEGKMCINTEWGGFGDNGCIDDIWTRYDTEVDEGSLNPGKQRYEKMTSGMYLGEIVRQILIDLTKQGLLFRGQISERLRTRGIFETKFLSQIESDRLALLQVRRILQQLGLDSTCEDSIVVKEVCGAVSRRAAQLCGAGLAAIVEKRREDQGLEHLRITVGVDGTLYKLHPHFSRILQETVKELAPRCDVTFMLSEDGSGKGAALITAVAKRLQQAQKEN

[1] = molecular target: T2, Short transient receptor potential channel 4 (Mus musculus, UniProt Q9QUQ5); test: calcium entry via TRPC4 opening agents – cell-based, HEK293 TRPC4/mu-opioid, Fluo-4 calcium, dose response (AID 434937); type: functional
T2 sequence (Q9QUQ5 whole entry): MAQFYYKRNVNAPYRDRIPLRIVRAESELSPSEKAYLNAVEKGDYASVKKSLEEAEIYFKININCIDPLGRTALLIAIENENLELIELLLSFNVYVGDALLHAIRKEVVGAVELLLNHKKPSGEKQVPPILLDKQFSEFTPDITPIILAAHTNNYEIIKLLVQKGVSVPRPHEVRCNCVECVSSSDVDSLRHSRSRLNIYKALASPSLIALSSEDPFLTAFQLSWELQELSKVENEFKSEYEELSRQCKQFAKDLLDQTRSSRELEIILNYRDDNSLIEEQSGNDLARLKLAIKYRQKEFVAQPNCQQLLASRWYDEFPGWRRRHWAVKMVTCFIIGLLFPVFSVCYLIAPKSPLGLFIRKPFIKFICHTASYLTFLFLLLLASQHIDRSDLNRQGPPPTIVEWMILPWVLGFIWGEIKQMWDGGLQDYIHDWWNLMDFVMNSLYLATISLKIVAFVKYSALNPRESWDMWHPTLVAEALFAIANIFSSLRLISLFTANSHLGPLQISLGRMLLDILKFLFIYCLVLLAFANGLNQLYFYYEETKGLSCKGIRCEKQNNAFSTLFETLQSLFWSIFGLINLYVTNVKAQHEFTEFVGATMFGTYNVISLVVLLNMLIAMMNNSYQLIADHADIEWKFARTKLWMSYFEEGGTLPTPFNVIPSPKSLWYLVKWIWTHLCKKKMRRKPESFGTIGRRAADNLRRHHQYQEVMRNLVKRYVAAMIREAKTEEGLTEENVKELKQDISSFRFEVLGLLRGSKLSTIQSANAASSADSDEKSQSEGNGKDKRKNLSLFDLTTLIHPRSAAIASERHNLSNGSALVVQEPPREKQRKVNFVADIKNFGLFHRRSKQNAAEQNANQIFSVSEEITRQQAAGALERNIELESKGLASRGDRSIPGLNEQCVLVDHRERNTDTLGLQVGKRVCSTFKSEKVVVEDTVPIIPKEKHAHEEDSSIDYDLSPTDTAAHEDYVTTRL

Hexokinase-1 = molecular target: T3, Hexokinase-1 (Homo sapiens, UniProt P19367); test: HK1 enzyme activation by HKDC1 hits – biochemical, selectivity assay for HKDC1 activator project, dose response (AID 504762); type: functional
T3 sequence (P19367 whole entry): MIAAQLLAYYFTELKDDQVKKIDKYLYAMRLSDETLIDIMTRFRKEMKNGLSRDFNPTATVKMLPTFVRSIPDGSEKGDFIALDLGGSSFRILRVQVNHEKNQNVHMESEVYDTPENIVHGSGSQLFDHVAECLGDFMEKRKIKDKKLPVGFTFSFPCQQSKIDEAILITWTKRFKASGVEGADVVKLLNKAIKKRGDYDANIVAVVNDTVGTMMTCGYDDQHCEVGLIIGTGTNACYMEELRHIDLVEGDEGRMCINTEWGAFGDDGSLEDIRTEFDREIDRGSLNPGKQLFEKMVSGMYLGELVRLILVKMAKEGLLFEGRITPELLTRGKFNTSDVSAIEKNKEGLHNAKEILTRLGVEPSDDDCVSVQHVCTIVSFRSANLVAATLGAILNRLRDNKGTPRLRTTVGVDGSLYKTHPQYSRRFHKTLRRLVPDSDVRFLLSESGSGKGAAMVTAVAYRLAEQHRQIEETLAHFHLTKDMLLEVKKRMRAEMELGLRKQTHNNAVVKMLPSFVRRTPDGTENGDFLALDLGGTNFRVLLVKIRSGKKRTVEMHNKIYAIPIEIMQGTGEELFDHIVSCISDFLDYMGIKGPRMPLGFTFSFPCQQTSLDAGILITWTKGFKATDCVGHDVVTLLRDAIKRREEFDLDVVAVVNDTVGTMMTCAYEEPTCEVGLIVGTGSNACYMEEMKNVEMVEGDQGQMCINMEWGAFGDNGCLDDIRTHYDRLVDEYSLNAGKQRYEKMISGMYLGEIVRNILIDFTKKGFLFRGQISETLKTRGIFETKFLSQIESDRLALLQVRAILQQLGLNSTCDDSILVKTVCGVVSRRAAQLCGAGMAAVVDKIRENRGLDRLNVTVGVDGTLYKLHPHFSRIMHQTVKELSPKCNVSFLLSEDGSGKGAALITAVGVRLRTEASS

[2] = system: Streptococcus sp. 'group A'; test: Streptococcus pyogenes SK(-)GAS viability under kanamycin – luminescence, BacTiterGlo, confirmation, counter-screen for streptokinase expression inhibitor project, dose response (AID 1900); type: functional, organism-based
Streptococcus = test: GAS UMAA2166 growth inhibition – luminescence, BacTiterGlo, counter-screen for streptokinase expression inhibitor project, dose response (AID 1915); type: functional, organism-based;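 note: potency for reduction of bacterial viability or growth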
[3] = molecular target: T4, E3 ubiquitin-protein ligase XIAP (Homo sapiens, UniProt P98170); test: small molecules displacing peptide from XIAP – biochemical, IAP family, fluorescence polarization (AID 1018); type: functional
[4] = molecular target: Protein-tyrosine kinase 2-beta (Homo sapiens, UniProt Q14289);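 note: potency of inhibitors of PYK2 kinase phosphorylation of poly-GT substrate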
[5] = molecular target: T4, E3 ubiquitin-protein ligase XIAP; test: Counter Screen using XIAP-Bir3 for Chemical Antagonists of Bir1/2 domains of IAP-family anti-apoptotic proteins. [Related pubchem assays (depositor defined):AID1018, AID1449, AID1514, AID1638, AID1749, AID1750, AID488957, AID488963]
Major prion protein = Major prion protein (Homo sapiens, UniProt P04156); type: functional, cell-based
[6] = molecular target: Peroxisome proliferator-activated receptor gamma/Nuclear receptor coactivator 2 (Homo sapiens, UniProt P37231); test: (§1) TR-FRET dose response biochemical High Throughput Screening assay for agonists of the steroid receptor coactivator 2 (SRC-2) recruitment by the peroxisome proliferator-activated receptor gamma (PPAR gamma): non-selective agonists. [Related pubchem assays: 1297, 1032 ]; type: functional
[7] = molecular target: Peroxisome proliferator-activated receptor gamma/Nuclear receptor coactivator 3 (Homo sapiens, UniProt P37231); test: as §1, with “3 (SRC-3)” for “2 (SRC-2)”, “1301 (Confirmation screen.), 1048 (Primary screen.)]” for “1297, 1032 ]”; type: functional
[8] = molecular target: Peroxisome proliferator-activated receptor gamma/Nuclear receptor coactivator 1 (Homo sapiens, UniProt P37231); test: as §1, with “1 (SRC-1)” for “2 (SRC-2)”, “assays (depositor defined):AID1300, AID1808, AID504735, AID631]” for “assays: 1297, 1032 ]”; type: protein assay
[9] = molecular target: T5, Peroxisome proliferator-activated receptor gamma (Homo sapiens, UniProt P37231); test: PPARg transcriptional activation, reporter cells – cell-based, luminescence, assay provider, dose response (AID 504447); type: functional
T5 sequence (P37231 whole entry): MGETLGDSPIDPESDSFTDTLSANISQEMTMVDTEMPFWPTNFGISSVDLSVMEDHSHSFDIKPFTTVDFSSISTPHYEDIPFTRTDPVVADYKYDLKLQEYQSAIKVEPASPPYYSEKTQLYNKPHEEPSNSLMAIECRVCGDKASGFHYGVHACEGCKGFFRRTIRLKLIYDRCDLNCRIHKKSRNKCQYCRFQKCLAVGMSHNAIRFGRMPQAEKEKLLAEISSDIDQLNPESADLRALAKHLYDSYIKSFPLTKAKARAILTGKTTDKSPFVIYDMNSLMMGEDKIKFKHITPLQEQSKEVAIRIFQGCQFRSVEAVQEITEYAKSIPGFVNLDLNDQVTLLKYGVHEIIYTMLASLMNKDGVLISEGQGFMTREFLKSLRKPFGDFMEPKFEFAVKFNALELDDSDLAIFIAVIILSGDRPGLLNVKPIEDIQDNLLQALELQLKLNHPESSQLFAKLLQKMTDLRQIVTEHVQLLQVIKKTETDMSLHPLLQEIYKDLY

For `Cc1onc(-c2ccccc2)c1C(=O)NNC(=S)NC(=O)c1ccc(Br)cc1`, the EC50 (Mucolipin-3) was 1.03 µM (active), the EC50 (Ion channel NompC) was 0.604 µM (active) and the EC50 (Hexokinase HKDC1) was 6.58 µM (active). The EC50 [1] was 1.88 µM (active), the EC50 (Hexokinase-1) was > 80 µM (inactive) and the EC50 [2] was 0.472 µM (active). For the same molecule, the EC50 (Streptococcus) was 1.52 µM (active).
With `CCOc1ccc(N(CC(=O)O)S(=O)(=O)c2ccc(F)cc2)cc1` the EC50 (Mucolipin-3) was > 29.9 µM (not active) and the EC50 (Ion channel NompC) was > 29.9 µM (inactive).
With `COc1ccc(OC)c(NS(=O)(=O)Cc2ccccc2)c1` the IC50 [3] was > 100 µM (not active), the IC50 [4] was 12 µM (not active) and the IC50 [5] was > 100 µM (inactive).
In the case of `CC(=O)CSc1nc(-c2cccs2)c(C#N)c(=O)[nH]1`, the IC50 (Major prion protein) is reported as 2.27 µM (active), the EC50 [6] is reported as > 79.4 µM (not active) and the EC50 [7] is reported as > 79.4 µM (not active). The EC50 [8] was > 79.4 µM (inactive).
In the case of `CC(C)N(CC#CCC(O)(c1ccccc1)c1ccccc1)CCO`, the IC50 [3] is reported as > 100 µM (not active) and the IC50 [5] is reported as > 100 µM (inactive).
In the case of `COC(=O)c1cc(Cl)c(NC(=O)c2cc3ccccc3o2)cc1OC`, the EC50 [6] is reported as 12.3 µM (not active), the EC50 [7] is reported as 63 µM (not active) and the EC50 [8] is reported as 7.17 µM (active).
`COc1ccc2c(c1)c(=O)c(C(=O)c1ccc(F)cc1)cn2CC(=O)Nc1ccc(F)cc1` was tested, and the EC50 [9] was 1.8 µM (active).
